Assays:
[1] = ATP pharmacokinetics: initial ATP release rate from red blood cells into blood plasma, Phase I study; format: in vivo, human
Experimental: The solution was administered by continuous intravenous infusions using an Ivac or similar infusion device through venous access in a peripheral vein. If venous access was a problem, either a Hickman catheter or its equivalent, or an Infusaport or its equivalent was inserted to provide vascular access.
The 50 μg/kg/min dose could be reduced to 25 μg/kg/min if adverse effects occurred. […] Succeeding infusions in that patient were at the infusion dose tolerated at the end of the previous treatment. If adverse events occurred in patients being infused at 25 μg/kg/min, the infusions were terminated and the patient received no additional infusions.

[2] = Laboratory parameters, chemistry: LDH, bilirubin, SGOT, SGPT, Phase I study; format: in vivo, human
Text: Serum LDH levels are an established strong independent negative prognostic factor, inversely related to survival in a great variety of adverse clinical conditions. In advanced refractory cancers, high LDH and low Karnofsky's performance status are among the strongest established independent negative prognostic factors of survival and quality of life (29).

[3] = Week 1 (Infusion 1), baseline, N=15
[4] = patients 502-505, week 1 (pre-dose) to week 13 (follow-up)

## Nc1ncnc2c1ncn2[C@@H]1O[C@H](COP(=O)(O)OP(=O)(O)OP(=O)(O)O)[C@@H](O)[C@H]1O [ATP, adenosine 5′-triphosphate]
[1]; Week 1 (infusion 1), 4 hours into infusion
  Initial ATP Release Rates Mean: 33.407 nM/min
[1]; Week 1 (infusion 1), 8 hours (before the end)
  Initial ATP Release Rates Mean: 47.224 nM/min
[1]; Week 1 (infusion 1), 8.25 hours
  Initial ATP Release Rates Mean: 10.400 nM/min
[1]; Week 1 (infusion 1), 9 hours
  Initial ATP Release Rates Mean: 25.408 nM/min
[1]; Week 1 (infusion 1), 10 hours
  Initial ATP Release Rates Mean: 13.959 nM/min
[1]; Week 1 (infusion 1), 11 hours
  Initial ATP Release Rates Mean: 14.743 nM/min
[1]; Week 1 (infusion 1), 12 hours
  Initial ATP Release Rates Mean: 12.565 nM/min
[1]; Week 1 (infusion 1), 14 hours
  Initial ATP Release Rates Mean: 12.067 nM/min
[1]; Week 1 (infusion 1), 16 hours
  Initial ATP Release Rates Mean: 15.331 nM/min
[1]; Week 1 (infusion 1), 20 hours
  Initial ATP Release Rates Mean: 20.063 nM/min
[1]; Week 1 (infusion 1), 24 hours
  Initial ATP Release Rates Mean: 17.452 nM/min
[1]; Week 1 (infusion 1), Time 0 (pre-infusion)
  Initial ATP Release Rates Mean: 15.469 nM/min
[1]; Week 1 (infusion 1), […]
  Initial ATP Release Rates Mean: 41.353 nM/min
[1]; Week 3 (Infusion 3), 4 hours into infusion
  Initial ATP Release Rates Mean: 55.414 nM/min
[1]; Week 3 (Infusion 3), 8 hours before the end
  Initial ATP Release Rates Mean: 48.283 nM/min
[1]; Week 3 (Infusion 3), 8.25 hours
  Initial ATP Release Rates Mean: 13.400 nM/min
[1]; Week 3 (Infusion 3), 9 hours
  Initial ATP Release Rates Mean: 34.992 nM/min
[1]; Week 3 (Infusion 3), 10 hours
  Initial ATP Release Rates Mean: 27.342 nM/min
[1]; Week 3 (Infusion 3), 11 hours
  Initial ATP Release Rates Mean: 18.888 nM/min
[1]; Week 3 (Infusion 3), 12 hours
  Initial ATP Release Rates Mean: 14.660 nM/min
[1]; Week 3 (Infusion 3), 14 hours
  Initial ATP Release Rates Mean: 10.390 nM/min
[1]; Week 3 (Infusion 3), 16 hours
  Initial ATP Release Rates Mean: 10.223 nM/min
[1]; Week 3 (Infusion 3), 20 hours
  Initial ATP Release Rates Mean: 11.708 nM/min
[1]; Week 3 (Infusion 3), 24 hours
  Initial ATP Release Rates Mean: 15.880 nM/min
[1]; Week 3 (Infusion 3), Time 0 (pre-infusion)
  Initial ATP Release Rates Mean: 18.228 nM/min
[1]; Week 3 (Infusion 3), […]
  Initial ATP Release Rates Mean: 38.780 nM/min
[1]; Week 8 (infusion 8), 4 hours into infusion
  Initial ATP Release Rates Mean: 28.700 nM/min
[1]; Week 8 (infusion 8), 8 hours (before the end)
  Initial ATP Release Rates Mean: 27.930 nM/min
[1]; Week 8 (infusion 8), 9 hours
  Initial ATP Release Rates Mean: 20.167 nM/min
[1]; Week 8 (infusion 8), 10 hours
  Initial ATP Release Rates Mean: 5.803 nM/min
[1]; Week 8 (infusion 8), 11 hours
  Initial ATP Release Rates Mean: 15.700 nM/min
[1]; Week 8 (infusion 8), 12 hours
  Initial ATP Release Rates Mean: 14.150 nM/min
[1]; Week 8 (infusion 8), 14 hours
  Initial ATP Release Rates Mean: 19.620 nM/min
[1]; Week 8 (infusion 8), 16 hours
  Initial ATP Release Rates Mean: 11.680 nM/min
[1]; Week 8 (infusion 8), 20 hours
  Initial ATP Release Rates Mean: 14.520 nM/min
[1]; Week 8 (infusion 8), 24 hours
  Initial ATP Release Rates Mean: 16.200 nM/min
[1]; Week 8 (infusion 8), Time 0 (pre-infusion)
  Initial ATP Release Rates Mean: 10.967 nM/min
[1]; Week 8 (infusion 8), […]
  Initial ATP Release Rates Mean: 11.267 nM/min
[1]; patients 502-505, time 0 to 8 hours
  average increases in Initial ATP Release Rates (from Red Blood Cells): 200-400%
[2]; [3]
  LDH, Change from Baseline, Median: 0.0 U/L
  LDH, Observed Values, Mean: 349.0 U/L
  LDH, Observed Values, Median: 265.0 U/L
  Phosphorus, Change from Baseline, Mean: 0.0 mg/dL
  Phosphorus, Change from Baseline, Median: 0.0 mg/dL
  Phosphorus, Observed Values, Mean: 3.1 mg/dL
  Phosphorus, Observed Values, Median: 3.2 mg/dL
  Total Bilirubin, Change from Baseline, Mean: 0.0 mg/dL
  Total Bilirubin, Change from Baseline, Median: 0.0 mg/dL
  Total Bilirubin, Observed Values, Mean: 0.7 mg/dL
  Total Bilirubin, Observed Values, Median: 0.4 mg/dL
[2]; Week 2 (Infusion 2), N=14
  LDH, Change from Baseline, Median: 24.0 U/L
  LDH, Observed Values, Mean: 386.6 U/L
  LDH, Observed Values, Median: 325.5 U/L
  Phosphorus, Change from Baseline, Mean: 0.1 mg/dL
  Phosphorus, Change from Baseline, Median: 0.1 mg/dL
  Phosphorus, Observed Values, Mean: 3.2 mg/dL
  Phosphorus, Observed Values, Median: 3.2 mg/dL
  Total Bilirubin, Change from Baseline, Mean: -0.1 mg/dL
  Total Bilirubin, Change from Baseline, Median: 0.0 mg/dL
  Total Bilirubin, Observed Values, Mean: 0.6 mg/dL
  Total Bilirubin, Observed Values, Median: 0.4 mg/dL
[2]; Week 4 (Infusion 4), N=11
  LDH, Change from Baseline, Median: 3.0 U/L
  LDH, Observed Values, Mean: 277.4 U/L
  LDH, Observed Values, Median: 211.0 U/L
  Phosphorus, Change from Baseline, Mean: -0.1 mg/dL
  Phosphorus, Change from Baseline, Median: 0.0 mg/dL
  Phosphorus, Observed Values, Mean: 3.1 mg/dL
  Phosphorus, Observed Values, Median: 3.0 mg/dL
  Total Bilirubin, Change from Baseline, Mean: 0.2 mg/dL
  Total Bilirubin, Change from Baseline, Median: -0.1 mg/dL
  Total Bilirubin, Observed Values, Mean: 0.8 mg/dL
  Total Bilirubin, Observed Values, Median: 0.2 mg/dL
[2]; Week 6 (Infusion 6), N=9
  LDH, Change from Baseline, Median: −20.0 U/L
  LDH, Observed Values, Mean: 265.6 U/L
  LDH, Observed Values, Median: 173.0 U/L
  Phosphorus, Change from Baseline, Mean: -0.1 mg/dL
  Phosphorus, Change from Baseline, Median: 0.2 mg/dL
  Phosphorus, Observed Values, Mean: 3.1 mg/dL
  Phosphorus, Observed Values, Median: 3.3 mg/dL
  Total Bilirubin, Change from Baseline, Mean: 1.2 mg/dL
  Total Bilirubin, Change from Baseline, Median: -0.1 mg/dL
  Total Bilirubin, Observed Values, Mean: 1.9 mg/dL
  Total Bilirubin, Observed Values, Median: 0.3 mg/dL
[2]; Week 8 (Infusion 8), N=6
  LDH, Change from Baseline, Median: −25.0 U/L
  LDH, Observed Values, Mean: 245.0 U/L
  LDH, Observed Values, Median: 161.0 U/L
[2]; Week 8 (Infusion 8), N=7
  Phosphorus, Change from Baseline, Mean: 0.3 mg/dL
  Phosphorus, Change from Baseline, Median: 0.0 mg/dL
  Phosphorus, Observed Values, Mean: 3.4 mg/dL
  Phosphorus, Observed Values, Median: 3.4 mg/dL
  Total Bilirubin, Change from Baseline, Mean: -0.0 mg/dL
  Total Bilirubin, Change from Baseline, Median: -0.1 mg/dL
  Total Bilirubin, Observed Values, Mean: 0.4 mg/dL
  Total Bilirubin, Observed Values, Median: 0.4 mg/dL
[2]; Week 10 (Follow-up), N=5
  LDH, Change from Baseline, Median: −15.0 U/L
  LDH, Observed Values, Mean: 214.6 U/L
  LDH, Observed Values, Median: 155.0 U/L
[2]; Week 10 (Follow-up), N=6
  Phosphorus, Change from Baseline, Mean: 0.0 mg/dL
  Phosphorus, Change from Baseline, Median: 0.3 mg/dL
  Phosphorus, Observed Values, Mean: 3.2 mg/dL
  Phosphorus, Observed Values, Median: 3.3 mg/dL
  Total Bilirubin, Change from Baseline, Mean: 0.1 mg/dL
  Total Bilirubin, Change from Baseline, Median: -0.1 mg/dL
  Total Bilirubin, Observed Values, Mean: 0.5 mg/dL
  Total Bilirubin, Observed Values, Median: 0.4 mg/dL
[2]; Week 13 (Follow-up), N=5
  LDH, Change from Baseline, Median: −27.0 U/L
  LDH, Observed Values, Mean: 168.2 U/L
  LDH, Observed Values, Median: 158.0 U/L
  Phosphorus, Change from Baseline, Mean: -0.0 mg/dL
  Phosphorus, Change from Baseline, Median: 0.2 mg/dL
  Phosphorus, Observed Values, Mean: 3.2 mg/dL
  Phosphorus, Observed Values, Median: 3.2 mg/dL
[2]; Week 13 (Follow-up), N=6
  Total Bilirubin, Change from Baseline, Mean: 0.1 mg/dL
  Total Bilirubin, Change from Baseline, Median: 0.1 mg/dL
  Total Bilirubin, Observed Values, Mean: 0.4 mg/dL
  Total Bilirubin, Observed Values, Median: 0.4 mg/dL
[2]; [4]
  SGOT (serum glutamate oxaloacetate transaminase): Consistent decreases
  SGPT (serum glutamate pyruvate transaminase): Consistent decreases
  serum LDH (lactate dehydrogenase): Consistent decreases
[2]; week 13 of treatment
  serum levels of bilirubin: remained stable
  serum levels of lactate dehydrogenase (LDH): dropped

From patent publication US20070203091A1, “Methods and therapeutic compositions for improving liver, blood flow and skeletal muscle functions in advanced diseases and aging” (priority 2006, published 2007)
